According to US20240390349A1, “DOSING REGIMEN OF CAPSID INHIBITOR” (priority 2023, published 2024):
Like-named read-outs stand apart in the source and are kept apart here.

How the values were obtained:
[1] = LEN plasma concentrations during oral bridging period, CALIBRATE (Phase 2, ARV-naive PWH); format: in vivo; conditions: for concentration at 1 day / concentration at 10 week / concentration at 20 week / concentration at 30 week: human, plasma, 300 mg
Excerpt: The objective of this study was to evaluate the pharmacokinetics (PK) of LEN during oral bridging period (OBP) to assess the adequacy of 300-mg PO once-weekly (QW) regimen for maintaining therapeutic concentrations between missed SC LEN doses. During OBP, sparse PK samples were collected at the start of OBP and every ˜10-12 weeks (without regard to a prespecified time since dose) until SC LEN was resumed. LEN plasma concentrations were summarized during OBP in the CAPELLA (N=57) and CALIBRATE (N=82) studies.
This Example describes a Phase 2, randomized, open-label, active-controlled, multicenter study. Participants in Treatment Groups 1 and 2 required oral bridging following a clinical hold imposed by the Food & Drug Administration on injectable LEN as the SC injection of LEN could not be administered within the protocol visit window. An Oral Bridging visit was completed every 10 to 12 weeks. Participants had to have met all of the inclusion criteria and none of the exclusion criteria to be included in the study.
Participants in Treatment Groups 1 and 2 required oral weekly bridging when SC injection of LEN could not be administered due to the LEN clinical hold. • If 26 to 28 weeks elapsed since the last SC injection and if clinically appropriate to continue LEN, oral LEN 300 mg (1 tablet) once a week was started at oral bridging visits and continued weekly dosing on the same day of the week. • If more than 28 weeks elapsed since the last SC injection and if clinically appropriate to continue LEN, the oral lead-in was restarted at the oral bridging visit and the participant continued oral weekly dosing on the same day of the week, until SC LEN was administered, as shown in Table 9. • Participants continued receiving oral weekly LEN 300 mg until they received their next SC LEN injection. • Oral bridging visits were completed every 10-12 weeks. Additional visits during the oral weekly administration were conducted perd investigator's discretion.

HIV-1 = experiment: Efficacy of oral bridging (HIV-1 RNA, CD4), CAPELLA; format: in vivo, human; conditions: for Percentage who maintained HIV-1 RNA<50 copies/mL: OB baseline HIV-1 RNA<50, Missing=Failure
Excerpt: This Example describes analysis of oral LEN bridging administered during a Phase 2/3, global, randomized, placebo-controlled multicenter study of lenacapavir (LEN) together with an optimized background regimen (OBR) in people with HIV (PWH) with multidrug resistance (MDR) (to […] antiretroviral (ARV) medications from each of ≥3 of the 4 main classes) and who are failing their current regimen (defined as plasma HIV-1 RNA≥400 copies/mL).
This Example describes a Phase 2/3, global, randomized, placebo-controlled multicenter study of LEN together with an OBR in PWH with MDR (to ≥2 ARV medications from each of ≥3 of the 4 main classes) and who are failing their current regimen (defined as plasma HIV-1 RNA≥400 copies/mL). Participants required oral bridging if an SC injection of LEN was not administered within the protocol visit window.
Participants were enrolled in either of the following two cohorts: • Cohort 1: Randomized in a 2:1 ratio to receive oral LEN or placebo for 14 days starting on Day 1, while they continued their existing regimen; or • Cohort 2: Enrolled to receive oral LEN together with an OBR.

[2] = SC LEN total, SC LEN resumption visit
[3] = Treatment Group 1, SC LEN resumption visit
[4] = Treatment Group 2, SC LEN resumption visit

CC(C)(C#Cc1ccc(-c2ccc(Cl)c3c(NS(C)(=O)=O)nn(CC(F)(F)F)c23)c([C@H](Cc2cc(F)cc(F)c2)NC(=O)Cn2nc(C(F)(F)F)c3c2C(F)(F)[C@@H]2C[C@H]32)n1)S(C)(=O)=O [LEN, N—((S)-1-(3-(4-chloro-3-(methylsulfonamido)-1-(2,2,2-trifluoroethyl)-1H-indazol-7-yl)-6-(3-methyl-3-(methylsulfonyl)but-1-yn-1-yl)pyridin-2-yl)-2-(3,5-difluorophenyl)ethyl)-2-((3bS,4aR)-5,5-difluoro-3-(trifluoromethyl)-3b,4,4a,5-tetrahydro-1H-cyclopropa [3,4]cyclopenta [1,2-c]pyrazol-1-yl) acetamide]
Mean LEN plasma concentration ([1]; SC LEN total (Groups 1+2), oral LEN 300 mg QW, Day 1): 27.8 (47.4) ng/mL | Lower 90% CI of Concentration [1, 2]: 43.6 ng/mL | Mean LEN plasma concentration [1, 2]: 50.7 ng/mL | Mean LEN plasma concentration ([1]; SC LEN total, Week 10): 54.9 (70.8) ng/mL | Mean LEN plasma concentration ([1]; SC LEN total, Week 20): 52.5 (77.7) ng/mL | Mean LEN plasma concentration ([1]; SC LEN total, Week 30): 50.1 (62.3) ng/mL | Mean LEN plasma concentration ([1]; Treatment Group 1 (SC LEN + [DVY→TAF]), Day 1): 28.8 (47.7) ng/mL | Lower 90% CI of Concentration [1, 3]: 38.6 ng/mL | Mean LEN plasma concentration [1, 3]: 49.4 ng/mL | Mean LEN plasma concentration ([1]; Treatment Group 1, Week 10): 50.9 (67.0) ng/mL | Mean LEN plasma concentration ([1]; Treatment Group 1, Week 20): 53.1 (84.5) ng/mL | Mean LEN plasma concentration ([1]; Treatment Group 1, Week 30): 43.7 (74.7) ng/mL | Mean LEN plasma concentration ([1]; Treatment Group 2 (SC LEN + [DVY→BIC]), Day 1): 26.7 (47.3) ng/mL | Lower 90% CI of Concentration [1, 4]: 42.7 ng/mL | Mean LEN plasma concentration [1, 4]: 52.2 ng/mL | Mean LEN plasma concentration ([1]; Treatment Group 2, Week 10): 59.3 (73.6) ng/mL | Mean LEN plasma concentration ([1]; Treatment Group 2, Week 20): 51.9 (70.2) ng/mL | Mean LEN plasma concentration ([1]; Treatment Group 2, Week 30): 56.5 (62.5) ng/mL | concentration at 1 day ([1]; oral, SC LEN total (Groups 1+2), oral LEN 300 mg QW, Day 1, read-out: Mean LEN plasma concentration): 27.8 ng/mL | concentration at 1 day ([1]; oral, Treatment Group 1, Day 1, read-out: Lower 90% CI of Concentration): 25.2 ng/mL | concentration at 10 week ([1]; oral, Treatment Group 1, Week 10, read-out: Lower 90% CI of Concentration): 41.1 ng/mL | concentration at 10 week ([1]; oral, Treatment Group 1, Week 10, read-out: Mean LEN plasma concentration): 50.9 ng/mL | concentration at 20 week ([1]; oral, Treatment Group 1, Week 20, read-out: Lower 90% CI of Concentration): 39.6 ng/mL | concentration at 20 week ([1]; oral, Treatment Group 1, Week 20, read-out: Mean LEN plasma concentration): 53.1 ng/mL | concentration at 30 week ([1]; oral, Treatment Group 1, Week 30, read-out: Mean LEN plasma concentration): 43.7 ng/mL | concentration at 1 day ([1]; oral, Treatment Group 2, Day 1, read-out: Lower 90% CI of Concentration): 23 ng/mL | concentration at 10 week ([1]; oral, Treatment Group 2, Week 10, read-out: Lower 90% CI of Concentration): 46.4 ng/mL | concentration at 10 week ([1]; oral, Treatment Group 2, Week 10, read-out: Mean LEN plasma concentration): 59.3 ng/mL | concentration at 20 week ([1]; oral, Treatment Group 2, Week 20, read-out: Lower 90% CI of Concentration): 40.2 ng/mL | concentration at 20 week ([1]; oral, Treatment Group 2, Week 20, read-out: Mean LEN plasma concentration): 51.9 ng/mL | concentration at 30 week ([1]; oral, Treatment Group 2, Week 30, read-out: Mean LEN plasma concentration): 56.5 ng/mL | concentration at 1 day ([1]; sc, SC LEN total, Day 1, read-out: Lower 90% CI of Concentration): 25.3 ng/mL | concentration at 10 week ([1]; sc, SC LEN total, Week 10, read-out: Lower 90% CI of Concentration): 47.1 ng/mL | concentration at 10 week ([1]; sc, SC LEN total, Week 10, read-out: Mean LEN plasma concentration): 54.9 ng/mL | concentration at 20 week ([1]; sc, SC LEN total, Week 20, read-out: Lower 90% CI of Concentration): 43.7 ng/mL | concentration at 20 week ([1]; sc, SC LEN total, Week 20, read-out: Mean LEN plasma concentration): 52.5 ng/mL | concentration at 30 week ([1]; sc, SC LEN total, Week 30, read-out: Lower 90% CI of Concentration): 24.4 ng/mL | concentration at 30 week ([1]; sc, SC LEN total, Week 30, read-out: Mean LEN plasma concentration): 50.1 ng/mL | concentration at 1 day ([1]; sc, Treatment Group 1 (SC LEN + [DVY→TAF]), Day 1, read-out: Mean LEN plasma concentration): 28.8 ng/mL | concentration at 1 day ([1]; sc, Treatment Group 2 (SC LEN + [DVY→BIC]), Day 1, read-out: Mean LEN plasma concentration): 26.7 ng/mL | CD4 count and CD4% during oral bridging (in words) (HIV-1): continued to increase from oral bridging baseline | Mean (SD) oral bridging baseline CD4 cell count (HIV-1): 356 (261.1) cells/μL | Mean oral bridging baseline CD4 percentage (HIV-1): 17.0% | Percentage who maintained HIV-1 RNA<50 copies/mL (HIV-1; Week 10): 97.8% | Percentage who maintained HIV-1 RNA<50 copies/mL (HIV-1; Week 20): 90.9% | Mean (SD) change from oral bridging baseline in HIV-1 RNA (HIV-1; OB baseline HIV-1 RNA<50, Week 10): 0.00 (0.250) log10 copies/mL
